According to patent US8765920B2, “Tyrosine bioconjugation through aqueous Ene-like reactions” (priority 2009, dated 2014):

Test: Stability study of modified p-cresol under thermal conditions
Type: physicochemical
Details: 120° C. for 1 h
Experimental: Compound 4, the product of the reaction of p-cresol and PTAD, was subjected to both strongly acidic and basic conditions for 24 hours at room temperature or high temperature (120° C.) for 1 hr. […] These conditions are extremely harsh for a peptide or protein.
The relative stability of the C—N bond formed in the products was studied using p-cresol as a model phenol. As shown in Scheme 11, p-cresol was reacted with PTAD in tetrahydrofuran in the presence of sodium hydride to provide adduct in 75% isolated yield. Compound 8f was subjected to both strong acidic and basic conditions for 24 hours at room temperature or high temperature (120° C.) for 1 h.
Compound 4 (4.00 mg, 0.0141 mmol) was heated at 120° C. for 1 h according to the literature. The recovery of 4 was 4.00 mg (quant.).
Compound 23 (4.00 mg, 0.0141 mmol) was heated at 120° C. for 1 h according to literature. The recovery of 23 was 4.00 mg (quant.).

## Cc1ccc(O)c(-n2[nH]c(=O)n(-c3ccccc3)c2=O)c1 [Compound 4, 1-(2-hydroxy-5-methylphenyl)-4-phenyl-1,2,4-triazolidine-3,5-dione]
  decomposition by 1H NMR after heating: wasn't detected
